# Laboratory results published in patent US20060067913A1, “HCV therapy” (priority 2003, published 2006).
# Where a SMILES comes first, the peptide text is derived from it.
# Assays:
# [1] = children; cited from earlier work
# [2] = Procedure: In this Example, Human Ezrin Peptide therapy comprised oral administration of a 2 mg/2 ml aqueous solution of HEP1 to HCV patients who were also infected with HIV. The patients were treated twice a day for 10 days followed by once a day for 20 days in the absence of any other anti-HIV or anti-HCV therapy. Blood samples from patients were analysed before treatment and 30 days after the end of the 30 day treatment period.
smiles,measurement,setting,value
CC(C)[C@H](NC(=O)[C@@H](NC(=O)[C@H](CCC(=O)O)NC(=O)[C@H](CCCNC(=N)N)NC(=O)[C@H](CCCNC(=N)N)NC(=O)[C@H](CCCCN)NC(=O)[C@H](CCCCN)NC(=O)[C@H](CCC(=O)O)NC(=O)[C@@H](N)[C@@H](C)O)[C@@H](C)O)C(=O)N[C@@H](CCC(=O)O)C(=O)N[C@@H](CCCNC(=N)N)C(=O)N[C@@H](CCC(=O)O)C(=O)N[C@@H](CCCCN)C(=O)N[C@@H](CCC(=O)O)C(=O)O [HEP1] (H-TEKKRRETVEREKE-OH),side-effects or adverse reactions,[1],No side-effects or adverse reactions
same,CD4/CD8 index,[2]; HIV+HCV infected patients,improved
same,average increase of CD4 cells,[2]; HIV+HCV infected patients,70 cells per microlitre
same,patients with increased CD4 cells,[2]; HIV+HCV infected patients,18 of 19
same,side effects or adverse events,[2]; during treatment with HEP1,No side effects or adverse events were observed
